Measurements reported in patent publication US20160046597A1, “RORC2 INHIBITORS AND METHODS OF USE THEREOF” (PFIZER INC., priority 2013, published 2016).

target: T1, RORC2 ligand binding domain (6-His-RORC2 LBD) (Homo sapiens, UniProt P51449); assay: Co-activator recruitment by TR-FRET (RORC2 FRET); type: biochemical; settings: 6.3 nM RORC2 LBD, 200 nM SRC1-2 coactivator peptide, 3 hours room temperature
T1 construct: made in house; host or cells: E. coli
T1 sequence (P51449 269-508 limits assumed): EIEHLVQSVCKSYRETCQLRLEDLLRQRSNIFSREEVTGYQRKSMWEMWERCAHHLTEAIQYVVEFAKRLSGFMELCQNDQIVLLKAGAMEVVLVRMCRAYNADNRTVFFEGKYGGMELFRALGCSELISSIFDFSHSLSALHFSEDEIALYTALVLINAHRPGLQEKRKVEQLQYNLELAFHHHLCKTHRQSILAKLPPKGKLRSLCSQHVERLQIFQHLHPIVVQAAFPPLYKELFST
From the text: The activity of compound of the invention can be determined by a co-activator recruitment by TR-FRET (time-resolved fluorescence resonance energy transfer) assay. […] Due to the long lasting fluorescence emission of Europium, the non-specific, short-lived fluorescence is time-resolved (TR) from the fluorescence of interest. Inhibitors of the interaction of receptor and coactivator peptide are detected by a decrease in TR-FRET signal.
Specifically, in one embodiment the aforementioned assay was performed as outlined below. The assay was carried out in black polystyrene, 384-well plates in a total assay volume of 50.5 μL. The assay buffer contained 50 mM TRIS-HCL pH 7.5, 1 mM NaCl, 2 mM MgCl2, 0.5 mg/mL bovine serum albumin, and 5 mM dithiothreitol.

Row | Compound | IC50
1 | O=C(Nc1ccc2[nH]cc(C3CCN(C(=O)C4CCCC4)CC3)c2c1)c1ccccc1F [Example 38, N-{3-[1-(cyclopentylcarbonyl)piperidin-4-yl]-1H-indol-5-yl}-2-fluorobenzamide] | 910 nM
2 | COc1ccc(C#N)cc1C(=O)Nc1ccc2[nH]cc(C3CCN(C(=O)C4CCCC4)CC3)c2c1 [Example 40, 5-cyano-N-{3-[1-(cyclopentylcarbonyl)piperidin-4-yl]-1H-indol-5-yl}-2-methoxybenzamide] | 380 nM
3 | N#Cc1ccc(F)c(C(=O)Nc2ccc3[nH]cc(C4CCN(C(=O)C5CCCC5)CC4)c3c2)c1 [Example 41, 5-cyano-N-{3-[1-(cyclopentylcarbonyl)piperidin-4-yl]-1H-indol-5-yl}-2-fluorobenzamide] | 327 nM
4 | COc1ccc(C(=O)Nc2ccc3[nH]cc(C4CCN(C(=O)C5CCCC5)CC4)c3c2)nc1 [Example 42, N-{3-[1-(cyclopentylcarbonyl)piperidin-4-yl]-1H-indol-5-yl}-5-methoxypyridine-2-carboxamide] | 953 nM
5 | O=C(Nc1ccc2[nH]cc(C3CCN(C(=O)C4CCCC4)CC3)c2c1)c1ccc2scnc2c1 [Example 43, N-{3-[1-(cyclopentylcarbonyl)piperidin-4-yl]-1H-indol-5-yl}-1,3-benzothiazole-5-carboxamide] | 1030 nM
6 | O=C(Nc1ccc2[nH]cc(C3CCN(C(=O)C4CCCC4)CC3)c2c1)c1ccccc1Cl [Example 44, 2-chloro-N-{3-[1-(cyclopentylcarbonyl)piperidin-4-yl]-1H-indol-5-yl}benzamide] | 624 nM
7 | O=C(Nc1ccc2[nH]cc(C3CCN(C(=O)C4CCCC4)CC3)c2c1)c1ccc(CO)cc1 [Example 45, N-{3-[1-(cyclopentylcarbonyl)piperidin-4-yl]-1H-indol-5-yl}-4-(hydroxymethyl)benzamide] | 3460 nM
8 | O=C(Nc1ccc2[nH]cc(C3CCN(C(=O)C4CCCC4)CC3)c2c1)c1cccc(O)c1 [Example 46, N-{3-[1-(cyclopentylcarbonyl)piperidin-4-yl]-1H-indol-5-yl}-3-hydroxybenzamide] | 1450 nM
9 | O=C(O)c1cccc(C(=O)Nc2ccc3[nH]cc(C4CCN(C(=O)C5CCCC5)CC4)c3c2)c1 [Example 48, 3-({3-[1-(cyclopentylcarbonyl)piperidin-4-yl]-1H-indol-5-yl}carbamoyl)benzoic acid] | 211 nM
10 | O=C(Nc1ccc2[nH]cc(C3CCN(C(=O)C4CCCC4)CC3)c2c1)c1cccc2ncsc12 [Example 49, N-{3-[1-(cyclopentylcarbonyl)piperidin-4-yl]-1H-indol-5-yl}-1,3-benzothiazole-7-carboxamide] | 1380 nM
11 | NC(=O)c1cccc(C(=O)Nc2ccc3[nH]cc(C4CCN(C(=O)C5CCCC5)CC4)c3c2)c1 [Example 50, N-{3-[1-(cyclopentylcarbonyl)piperidin-4-yl]-1H-indol-5-yl}isophthalamide] | 1430 nM
12 | O=C(Nc1ccc2[nH]cc(C3CCN(C(=O)C4CCCC4)CC3)c2c1)c1ccc2[nH]cnc2c1 [Example 51, N-{3-[1-(cyclopentylcarbonyl)piperidin-4-yl]-1H-indol-5-yl}-1H-benzimidazole-5-carboxamide] | 871 nM
13 | Cn1cnc2cc(C(=O)Nc3ccc4[nH]cc(C5CCN(C(=O)C6CCCC6)CC5)c4c3)ccc21 [Example 52, N-{3-[1-(cyclopentylcarbonyl)piperidin-4-yl]-1H-indol-5-yl}-1-methyl-1H-benzimidazole-5-carboxamide] | 1110 nM
14 | Cc1ncc(C(=O)Nc2ccc3[nH]cc(C4CCN(C(=O)C5CCCC5)CC4)c3c2)cc1C#N [Example 53, 5-cyano-N-{3-[1-(cyclopentylcarbonyl)piperidin-4-yl]-1H-indol-5-yl}-6-methylnicotinamide] | 124 nM
15 | Cn1cc(C2CCN(C(=O)C3CCCC3)CC2)c2cc(NC(=O)N3CCCC(C#N)C3)ccc21 (stereo not shown) [Example 58, 3-cyano-N-(3-(1-(cyclopentanecarbonyl)piperidin-4-yl)-1-methyl-1H-indol-5-yl)piperidine-1-carboxamide] | 256 nM
16 | CN(CCC#N)C(=O)Nc1ccc2c(c1)c(C1CCN(C(=O)C3CCCC3)CC1)cn2C [Example 59, 1-(2-cyanoethyl)-3-{3-[1-(cyclopentylcarbonyl)piperidin-4-yl]-1-methyl-1H-indol-5-yl}-1-methylurea] | 330 nM
17 | Cn1cc(C2CCN(C(=O)C3CCCC3)CC2)c2cc(NC(=O)N3CC[C@H](C#N)C3)ccc21 [Example 60, (3S)-3-cyano-N-{3-[1-(cyclopentylcarbonyl)piperidin-4-yl]-1-methyl-1H-indol-5-yl}pyrrolidine-1-carboxamide] | 216 nM

Row | Compound | IC50
18 | Cn1cc(C2CCN(C(=O)C3CCCC3)CC2)c2cc(NC(=O)N3CC(CC#N)C3)ccc21 [Example 61, 3-(cyanomethyl)-N-{3-[1-(cyclopentylcarbonyl)piperidin-4-yl]-1-methyl-1H-indol-5-yl}azetidine-1-carboxamide] | 335 nM
19 | Cn1cc(C2CCN(C(=O)C3CCCC3)CC2)c2cc(NC(=O)N3CCOC(C#N)C3)ccc21 (stereo not shown) [Example 62, 2-cyano-N-{3-[1-(cyclopentylcarbonyl)piperidin-4-yl]-1-methyl-1H-indol-5-yl}morpholine-4-carboxamide] | 425 nM
20 | Cn1cc(C2CCN(C(=O)C3CCCC3)CC2)c2cc(NC(=O)N3CC(C#N)C3)ccc21 [Example 63, 3-cyano-N-{3-[1-(cyclopentylcarbonyl)piperidin-4-yl]-1-methyl-1H-indol-5-yl}azetidine-1-carboxamide] | 193 nM
21 | Cn1cc(C2CCN(C(=O)C3CCCC3)CC2)c2cc(NS(=O)(=O)c3ccc(F)cc3)ccc21 [Example 64, N-(3-(1-(cyclopentylcarbonyl)piperidin-4-yl)-1-methyl-1H-indol-5-yl)-4-fluorobenzenesulfonamide] | 5.8 nM
22 | Cn1cc(C2CCN(C(=O)C3CCCC3)CC2)c2cc(NS(=O)(=O)c3cnc(N)nc3)ccc21 [Example 65, 2-amino-N-{3-[1-(cyclopentylcarbonyl)piperidin-4-yl]-1-methyl-1H-indol-5-yl}pyrimidine-5-sulfonamide] | 37.3 nM
23 | Cn1cc(C2CCN(C(=O)C3CCCC3)CC2)c2cc(NS(=O)(=O)c3cccc(F)c3)ccc21 [Example 66, N-{3-[1-(cyclopentylcarbonyl)piperidin-4-yl]-1-methyl-1H-indol-5-yl}-3-fluorobenzenesulfonamide] | 7 nM
24 | Cn1cc(C2CCN(C(=O)C3CCCC3)CC2)c2cc(NS(=O)(=O)c3cccc(C#N)c3)ccc21 [Example 67, 3-cyano-N-{3-[1-(cyclopentylcarbonyl)piperidin-4-yl]-1-methyl-1H-indol-5-yl}benzenesulfonamide] | 11.4 nM
25 | Cn1cc(C2CCN(C(=O)C3CCCC3)CC2)c2cc(NS(=O)(=O)c3ccccc3)ccc21 [Example 68, N-{3-[1-(cyclopentylcarbonyl)piperidin-4-yl]-1-methyl-1H-indol-5-yl}benzenesulfonamide] | 6.5 nM
26 | Cn1cnc(S(=O)(=O)Nc2ccc3c(c2)c(C2CCN(C(=O)C4CCCC4)CC2)cn3C)c1 [Example 69, N-{3-[1-(cyclopentylcarbonyl)piperidin-4-yl]-1-methyl-1H-indol-5-yl}-1-methyl-1H-imidazole-4-sulfonamide] | 270 nM
27 | Cn1cc(C2CCN(C(=O)C3CCCC3)CC2)c2cc(NS(=O)(=O)C3CCCCC3)ccc21 [Example 70, N-{3-[1-(cyclopentylcarbonyl)piperidin-4-yl]-1-methyl-1H-indol-5-yl}cyclohexanesulfonamide] | 7.2 nM
28 | Cn1cc(C2CCN(C(=O)C3CCCC3)CC2)c2cc(NS(=O)(=O)c3ccc(C#N)cc3)ccc21 [Example 71, 4-cyano-N-{3-[1-(cyclopentylcarbonyl)piperidin-4-yl]-1-methyl-1H-indol-5-yl}benzenesulfonamide] | 23.9 nM
29 | Cn1cc(C2CCN(C(=O)C3CCCC3)CC2)c2cc(NS(=O)(=O)C3CC3)ccc21 [Example 72, N-{3-[1-(cyclopentylcarbonyl)piperidin-4-yl]-1-methyl-1H-indol-5-yl}cyclopropanesulfonamide] | 128 nM
30 | CCCS(=O)(=O)Nc1ccc2c(c1)c(C1CCN(C(=O)C3CCCC3)CC1)cn2C [Example 73, N-{3-[1-(cyclopentylcarbonyl)piperidin-4-yl]-1-methyl-1H-indol-5-yl}propane-1-sulfonamide] | 67.7 nM
31 | COCCCS(=O)(=O)Nc1ccc2c(c1)c(C1CCN(C(=O)C3CCCC3)CC1)cn2C [Example 74, N-{3-[1-(cyclopentylcarbonyl)piperidin-4-yl]-1-methyl-1H-indol-5-yl}-3-methoxypropane-1-sulfonamide] | 53 nM
32 | COc1ccc(S(=O)(=O)Nc2ccc3c(c2)c(C2CCN(C(=O)C4CCCC4)CC2)cn3C)cc1 [Example 75] | 14.7 nM
33 | Cn1cc(C2CCN(C(=O)C3CCCC3)CC2)c2cc(NS(=O)(=O)c3cccnc3)ccc21 [Example 76, N-{3-[1-(cyclopentylcarbonyl)piperidin-4-yl]-1-methyl-1H-indol-5-yl}pyridine-3-sulfonamide] | 22.9 nM
34 | Cn1cc(C2CCN(C(=O)C3CCCC3)CC2)c2cc(NS(=O)(=O)Cc3ccccc3)ccc21 [Example 77, N-{3-[1-(cyclopentylcarbonyl)piperidin-4-yl]-1-methyl-1H-indol-5-yl}-1-phenylmethanesulfonamide] | 50.5 nM
